Measured values published in patent publication US20230278998A1, “Compound containing structure of a five-membered heteroaromatic ring, pharmaceutical compositions thereof and applications thereof” (280 Bio, Inc., priority 2022, published 2023).

Columns and labels:
PARG = PARG (Homo sapiens (Human), UniProt Q86W56); assay: PARG cell inhibition assay (PAR staining after H2O2); assay type: cell-based; details: UWB1.289 cells; value in brackets
Description: PARG Cell Inhibition Assay
UWB1.289 cells were used and the medium was 50% MEBM+50% 1640+3% FBS+1×PS. The cells were cultured according to ATCC standard operation and the cells were assayed in exponential growth phase for the experiment. Re-suspend cell in medium to a proper concentration, only cells with viability greater than 90% are used for assays.
Seed cells UWB1.289 in each culture medium, incubate overnight at 37° C., 5% CO2.
Test compounds was diluted with DMSO in gradient. Add test compound in cell plate, incubate at 37° C.
Add compounds and H2O2 mixture into cell plate, incubate at 37° C. Use 100 nM PDD00017273 as positive control.
Remove solution and recovery cell, incubate at 37° C.
Remove solution in the plate and add Cold-MeOH, incubate at −20° C.
Add blocking buffer into cell plate, incubate at RT.
Add PAR mAb, incubate at 4° C. overnight.
Add secondary antibody and DNA stain DRAQ5, incubate at RT.
Wash 3 times with PBST and 2 times with PBS. Turn plate upside down and centrifuge 1000 rpm 1 min.
Scan plate using LI-COR for best result.
Calculate the % inhibition according to the following formula: % inhibition=(compound signal value−negative control signal average)/(positive control signal average−negative control signal average)×100. Use the formula Y=Bottom+(Top−Bottom)/(1+10^((Log IC50−X)*HillSlope)) to fit the curve to obtain the IC50 values.

PARG (389-976) = PARG (389-976) (Homo sapiens (Human), UniProt Q86W56); assay: PARG enzyme inhibition assay (TR-FRET); assay type: biochemical
Description: PARG Enzyme Inhibition Assay
PARG in vitro assays were conducted in standard 384-well plates in a total volume of 15 μL.

Chain of PARG (389-976) (Q86W56 389-976): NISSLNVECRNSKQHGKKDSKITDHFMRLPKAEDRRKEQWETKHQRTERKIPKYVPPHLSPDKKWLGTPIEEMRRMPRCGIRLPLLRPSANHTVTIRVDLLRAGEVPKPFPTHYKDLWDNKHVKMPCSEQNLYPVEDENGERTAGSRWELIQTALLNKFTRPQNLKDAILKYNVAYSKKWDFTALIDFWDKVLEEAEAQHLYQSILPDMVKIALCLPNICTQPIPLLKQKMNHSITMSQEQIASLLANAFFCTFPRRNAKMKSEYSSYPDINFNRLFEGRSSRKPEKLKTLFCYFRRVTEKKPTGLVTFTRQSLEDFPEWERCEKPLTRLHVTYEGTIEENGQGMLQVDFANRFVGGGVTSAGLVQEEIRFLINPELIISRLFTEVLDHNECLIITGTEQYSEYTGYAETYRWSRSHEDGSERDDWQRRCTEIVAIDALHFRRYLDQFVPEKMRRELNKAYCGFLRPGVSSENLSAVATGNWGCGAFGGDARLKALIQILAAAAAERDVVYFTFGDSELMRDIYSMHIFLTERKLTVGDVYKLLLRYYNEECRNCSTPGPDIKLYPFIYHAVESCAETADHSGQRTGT
Chain of PARG (Q86W56 whole entry): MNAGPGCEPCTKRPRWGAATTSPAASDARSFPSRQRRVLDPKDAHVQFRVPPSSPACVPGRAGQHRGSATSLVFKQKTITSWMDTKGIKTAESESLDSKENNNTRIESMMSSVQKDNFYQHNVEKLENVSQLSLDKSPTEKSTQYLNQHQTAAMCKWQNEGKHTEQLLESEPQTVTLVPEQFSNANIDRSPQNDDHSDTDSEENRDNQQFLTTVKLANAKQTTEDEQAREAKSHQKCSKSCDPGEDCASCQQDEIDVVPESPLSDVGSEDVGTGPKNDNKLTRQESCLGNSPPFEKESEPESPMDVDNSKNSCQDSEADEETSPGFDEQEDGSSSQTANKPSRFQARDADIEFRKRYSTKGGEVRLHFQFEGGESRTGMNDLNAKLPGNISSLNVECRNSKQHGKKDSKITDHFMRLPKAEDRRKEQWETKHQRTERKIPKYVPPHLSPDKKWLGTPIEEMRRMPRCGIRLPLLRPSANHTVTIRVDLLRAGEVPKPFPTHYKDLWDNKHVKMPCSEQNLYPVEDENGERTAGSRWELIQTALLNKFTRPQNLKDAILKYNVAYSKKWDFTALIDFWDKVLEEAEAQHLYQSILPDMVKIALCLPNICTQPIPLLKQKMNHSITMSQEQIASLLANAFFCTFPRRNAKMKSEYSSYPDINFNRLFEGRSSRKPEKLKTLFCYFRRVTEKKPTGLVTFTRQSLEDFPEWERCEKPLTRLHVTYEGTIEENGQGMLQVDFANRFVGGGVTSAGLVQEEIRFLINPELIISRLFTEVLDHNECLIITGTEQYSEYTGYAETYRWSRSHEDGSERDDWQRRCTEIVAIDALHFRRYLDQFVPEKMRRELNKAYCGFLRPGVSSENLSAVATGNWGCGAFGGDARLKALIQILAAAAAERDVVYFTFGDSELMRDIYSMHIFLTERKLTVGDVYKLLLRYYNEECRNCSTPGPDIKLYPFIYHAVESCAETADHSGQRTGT

Row | Compound | IC50 (PARG (389-976); Table 3, class symbol) [µM] | other results
1 | CC(C)C(=O)N1CCN(c2cc(S(=O)(=O)NC3(C)CC3)cc3c(-c4nnc(C(F)F)s4)n[nH]c23)CC1 [Compound 3] |  | IC50 (PARG): 0.0096 µM; IC50 (PARG (389-976); Table 1, class symbol): < 0.1 µM; IC50 (PARG (389-976); Table 1, value in brackets): 0.001 µM
2 | CC(C)C(=O)N1CCN(c2cc(S(=O)(=O)NC3(C)CC3)cc3c(-c4nnc(C(F)F)s4)nn(C)c23)CC1 [Compound 5] |  | IC50 (PARG): 0.0031 µM; IC50 (PARG (389-976); Table 1, class symbol): < 0.1 µM; IC50 (PARG (389-976); Table 1, value in brackets): 0.0005 µM
3 | CC(C)C(=O)N1CCN(c2cc(S(=O)(=O)NC3(C#N)CC3)cc3c(-c4nnc(C(F)F)s4)nn(C)c23)CC1 [Compound 17] |  | IC50 (PARG): 0.0036 µM; IC50 (PARG (389-976); Table 2, class symbol): < 0.1 µM; IC50 (PARG (389-976); Table 2, value in brackets): 0.0006 µM
4 | CC(C)C(=O)N1C2CCC1CC(c1cc(S(=O)(=O)NC3(C#N)CC3)cc3c(-c4nnc(C(F)F)s4)nn(C)c13)C2 (stereo not shown) [Compound 127] | < 0.1 | 
5 | C[C@H](N)C(=O)N1C2CCC1CC(c1cc(S(=O)(=O)NC3(C#N)CC3)cc3c(-c4nnc(C(F)F)s4)nn(C)c13)C2 (stereo partly shown) [Compound 128] | < 0.1 | 
6 | Cn1nc(-c2nnc(C(F)F)s2)c2cc(S(=O)(=O)NC3(C#N)CC3)cc(N3CC4CCC(C3)C4C(C)(C)O)c21 (stereo not shown) [Compound 130] | 0.1 to 1 | 
7 | CC(C)C(=O)N1CCN(c2cc(S(=O)(=O)NC(C)(C)C)cc3c(-c4nnc(C(F)F)s4)nn(C)c23)CC1 [Compound 131] | < 0.1 | 
8 | CN(C)C(=O)c1ccc(-c2cc(S(=O)(=O)NC3(C#N)CC3)cc3c(-c4nnc(C(F)F)s4)nn(C)c23)cc1 [Compound 132] | < 0.1 | 
9 | N#CC1(NS(=O)(=O)c2cc(N3CC4(CCOCC4)C3)c3c(c2)c(-c2nnc(C(F)F)s2)nn3CC(F)(F)F)CC1 [Compound 133] | < 0.1 | 
10 | Cn1nc(-c2nnc(C(F)F)s2)c2cc(S(=O)(=O)NC3(C#N)CC3)cc(N3CCC(N4CCCC4)CC3)c21 [Compound 134] | < 0.1 | 
11 | Cn1nc(-c2nnc(C(F)F)s2)c2cc(S(=O)(=O)NC3(C#N)CC3)cc(-c3ccc(C(=O)N4CCCC4)cc3)c21 [Compound 135] | < 0.1 | 
12 | CC(C)C(=O)N1CC=C(c2cc(S(=O)(=O)NC3(C#N)CC3)cc3c(-c4nnc(C(F)F)s4)nn(C[C@@H](O)CO)c23)CC1 [Compound 136] | < 0.1 | 
13 | Cn1nc(-c2nnc(C(F)F)s2)c2cc(S(=O)(=O)NC3(C#N)CC3)cc(C3=CCC(C(=O)N4CCCC4)CC3)c21 (stereo not shown) [Compound 137] | < 0.1 | 
14 | Cn1nc(-c2nnc(C(F)F)s2)c2cc(S(=O)(=O)NC3(C#N)CC3)cc(N3CCC(N4CCCC4=O)CC3)c21 [Compound 139] | < 0.1 | 
15 | Cn1nc(-c2nnc(C(F)F)s2)c2cc(S(=O)(=O)NC3(C#N)CC3)cc(C3CCC(C(=O)N4CCCC4)CC3)c21 (stereo not shown) [Compound 140] | < 0.1 | 
16 | CC(C)S(=O)(=O)N1CC=C(c2cc(S(=O)(=O)NC3(C#N)CC3)cc3c(-c4nnc(C(F)F)s4)nn(C)c23)CC1 [Compound 141] | < 0.1 | 
17 | Cn1nc(-c2nnc(C(F)F)s2)c2cc(S(=O)(=O)NC3(C#N)CC3)cc(N3CCN(C(=O)C4CCCC4)CC3)c21 [Compound 142] | < 0.1 | 
18 | Cn1nc(-c2nnc(C(F)F)s2)c2cc(S(=O)(=O)NC3(C#N)CC3)cc(N3CCN(C(=O)C4(C)CCC4)CC3)c21 [Compound 143] | < 0.1 | 
19 | Cn1nc(-c2nnc(C(F)F)s2)c2cc(S(=O)(=O)NC3(C#N)CC3)cc(N3CCN(C(=O)C4CCC4)CC3)c21 [Compound 144] | < 0.1 | 
20 | CCN(C)C(=O)N1CCN(c2cc(S(=O)(=O)NC3(C#N)CC3)cc3c(-c4nnc(C(F)F)s4)nn(C)c23)CC1 [Compound 145] | < 0.1 | 
21 | CC(C)CC(=O)N1CCN(c2cc(S(=O)(=O)NC3(C#N)CC3)cc3c(-c4nnc(C(F)F)s4)nn(C)c23)CC1 [Compound 146] | < 0.1 | 
22 | Cc1cc(Cn2c(=O)n(Cc3cnc(C)s3)c(=O)c3cc(S(=O)(=O)NC4(C)CC4)ccc32)n(C)n1 [PDD00017273, reference compound] | < 0.1 | IC50 (PARG): 0.0134 µM
23 | Cc1nc(C)c(Cn2nc(-c3nnc(C(F)F)s3)c3cc(S(=O)(=O)NC4(C)CC4)ccc32)s1 [compound 1, reference compound] |  | IC50 (PARG): 0.0147 µM; IC50 (PARG (389-976); Table 1, value in brackets): 0.0019 µM
